Results published in patent US8299236B2, “Compositions and methods for enhancing delivery of nucleic acids into cells and for modifying expression of target genes in cells” (Marina Biotech, Inc., priority 2004, dated 2012).

Legend:
[1] = tested on: cells; experiment: Uptake of peptide-siRNA conjugate versus complex (Cy5 fluorescence, flow cytometry); format: cell-based; details: FIGS. 1 and 2
Method: Cells were plated the day before in 24-well plates so that they were ˜50-80% confluent at time of transfection. For complexes, siRNA and peptide were diluted in Opti-MEM® media (Invitrogen), then mixed and allowed to complex 5-10 minutes before adding to cells washed with PBS. Final concentration of siRNA was 500 nM at each peptide concentration (2-50 μM). The conjugate, also diluted in Opti-MEM® media, was added to cells at final concentrations ranging from 62.5 nM to 500 nM. At 500 nM concentration, we also combined with 20% FBS just before adding to washed cells. Cells were transfected for 3 hours at 37° C., 5% CO2. Cells were washed with PBS, treated with trypsin and then analyzed by flow cytometry. siRNA uptake was measured by intensity of Cy5 fluorescence and cellular viability assessed by addition of propidium iodide.

[2] = tested on: mouse tail fibroblasts; experiment: siRNA uptake with siRNA/peptide complexes in murine primary fibroblasts; format: cell-based; details: Table 6
Method: Approximately 10,000 9 L/lacZ cells were plated per well in flat-bottom 96-well plates so that they would be ˜50% confluent the next day at the time of transfection. FAM-labeled siRNA and peptides were diluted in Opti-MEM® media (Invitrogen) at 2-fold the final concentration. Equal volumes of siRNA and peptide were mixed and allowed to complex 5-10 minutes at room temperature and then 50 μL added to cells, previously washed with PBS. Cells were transfected for 3 hours at 37° C., 5% CO2. Cells were washed with PBS, treated with trypsin and then analyzed by flow cytometry. siRNA uptake was measured by intensity of FAM fluorescence and cellular viability assessed by addition of propidium iodide.
The materials and methods used for these experiments are generally the same as described above, except that for the murine experiments 9 L/LacZ cells were replaced with mouse tail fibroblasts.
The uptake measurements were performed using mouse tail fibroblast cells.

[3] = tested on: 9 L/LacZ cells; experiment: Screening of siRNA/peptide complexes for FAM-siRNA uptake (flow cytometry, propidium iodide); format: cell-based; details: Table 6
[4] = tested on: hTNF-α; experiment: Plasma hTNF-α ELISA in human TNF-α expressing mice; format: in vivo, mouse; details: i.v., average of the mice
Description: During the injection periods, plasma samples were collected for ELISA testing (R&D Systems, Cat#SSTA00C), and paw scores were taken twice a week as an accepted index of RA disease progression and therapeutic efficacy.

[5] = tested on: transgenic mouse models of rheumatoid arthritis (RA) constitutively expressing human TNF-α; experiment: Transgenic mouse models of rheumatoid arthritis constitutively expressing human TNF-α; format: in vivo; details: twice weekly beginning at age 6 weeks; stabilization beginning at age 7 weeks
Method: One exemplary candidate siRNA/delivery peptide formulation was evaluated in two transgenic mouse models of rheumatoid arthritis (RA) constitutively expressing human TNF-α.

| Substance | Percent Uptake, Primary MTF Cells [2] [%] | Percent Uptake, LacZ Cells [3] [%] | further results |
| --- | --- | --- | --- |
| conjugate: TAT-HA peptide (SEQ ID NO: 35) covalently conjugated to the siRNA sense strand (SEQ ID NO: 34) (chain 1 gcaagcugacccugaaguucau; chain 2 RRRQRRKRGGDIMGEWGNEIFGAIAGFLG; peptide-siRNA conjugate) |  |  | siRNA uptake and mean fluorescence, conjugate compared to complexing peptide and RNA [1]: higher uptake and greater mean fluorescence uptake |
| H-RRRQRRKRGGDIMGEWGNEIFGAIAGFLG-NH2 [PN250] | 86 | 99 |  |
| AAVALLPAVLLALLAPRKKRRQRRRPPQC [PN27] | 61 | 86 |  |
| H-RGSRRAVTRAQRRDGRRRRRSRRESYSVYVYRVLRQ-NH2 [PN404] | 50 |  |  |
| Ramicade: the RA drug Ramicade (5 mg/kg); TNF-α neutralizing agent infliximab |  |  | hTNF-α ELISA (plasma) ([4]; age 7 weeks): 102.24 pg/mL; hTNF-α ELISA (plasma) ([4]; age 8 weeks): 39.27 pg/mL; hTNF-α ELISA (plasma) ([4]; age 9 weeks): 25.80 pg/mL; RA score (paw and joint inflammation) [5]: RA score stabilization |
| Ac-KETWWETWWTEWSQPKKKRKV-NH2 [PN182] |  | 85 |  |
| NH2-LLETLLKPFQCRICMRNFSTRQARRNHRRRHRR-amide (H-LLETLLKPFQCRICMRNFSTRQARRNHRRRHRR-NH2; cysteine pairing not given here) [PN202] |  | 71 |  |
| H-GALFLGFLGAAGSTMGAWSQPKSKRKVC-NH2 [PN453] | 79 |  |  |
| NH2-RKKRRQRRRPPQCAAVALLPAVLLALLAP-amide (H-RKKRRQRRRPPQCAAVALLPAVLLALLAP-NH2) [PN28] | 81 | 79 |  |
| H-AAVALLPAVLLALLAPSGASGLDKRDYV-NH2 [PN29] |  | 87 |  |
